Laboratory results as given in patent publication US8759311B2, “Use of siRNA targetting SIPA1L1 for the reduction of adipogenesis” (Sanofi, priority 2009, dated 2014).

Experiments:
C57BL/6J mice = test: high fat diet fed C57BL/6J mice treated with Rimonabant; assay type: in vivo, mouse; settings: HFD mice, 10 mg.kg−1.day−1 for one month
Text: C57BL/6J mice, which are obesity-prone (Collins S. et al., 2004) were fed for 6 months with a high fat diet (HFD).

Sipa1l1 = test: retroviral shRNA transduction of 3T3-L1 cells, Sipa1l1 mRNA by RT-PCR; assay type: cell-based, mouse; settings: day 0 prior differentiation
Protocol: 3T3-L1 cells were cultured in DMEM (Gibco) with 10% FBS (Gibco) at 5% CO2. After retroviral infection (see below), cells were allow to grow to confluence in either 100-mm or 60-mm dishes in DMEM with 10% FBS. Once confluence was reached, cells were exposed to differentiation medium containing dexamethasone (1 μM), insulin (5 μg/ml), and isobutylmethylxanthine ([…]) (DMI). After 2 days cells were maintained in medium containing insulin (5 μg/ml) until ready for harvest at 7 days.
Retroviruses were constructed in the RNAi-Ready pSIREN-RetroQ ZsGreen (pSIREN Clontech) or pMSCV puromycin plasmid (pMSCV, Clontech). Viral constructs were transfected using calcium-phosphate method described in Jordan M. et al (2004) into 293 HEK packaging cells along with constructs encoding gag-pol and the VSV-G protein. Supernatants were harvested after 48 h in presence of 3 μm of Trichostatin A (Sigma) and either used immediately or snap frozen and stored at −80° C. for later use. Viral supernatants were added to the cells for 6 hours in the presence of polybrene (4 μg/ml) and diluted two times with fresh medium for the next 15 hours.
Total RNA was isolated from cultured cells using peqGOLD TriFast reagent according to the manufacturer's instructions (Axonlab). First strand cDNA was synthesized from 0.5 μg of total RNA using random primers and Superscript II (Invitrogen). […]

Row | Molecule | body weight (C57BL/6J mice) | glucose tolerance (C57BL/6J mice) | knockdown of Sipa1l1 mRNA (Sipa1l1)
1 | Cc1c(C(=O)NN2CCCCC2)nn(-c2ccc(Cl)cc2Cl)c1-c1ccc(Cl)cc1 [Rimonabant] | normalize | normalized | 
2 | shLuc: control shRNA against the firefly luciferase protein (SEQ ID NO. 7) (nucleic acid, the letters are possibly those of the target site) GATCCGTGCGTTGCTAGTACCAATTCAAGAGATTGGTACTAGCAACGCACTTTTTTACGCGTG |  |  | no inhibition
